We go through two molecules from US5908868A, “Retinol derivatives useful for enhancing immune response” (priority 1995, dated 1999).

SMILES strings stand for the structures.

For series [1], the system named is P388D.1. Briefly: Retinol metabolism. It counts as in vitro ADME, mouse. On the procedure:
(§1) FBS. The FBS was preincubated at room temperature with 14.4 uCi [^3 H
(§2) retinol (NEN) for 4 h. The cell pellet was washed twice with PBS. The
(§3) retinoid were extracted according to MClean et al. 90 and separated on an
(§4) analytical c18 reverse phase column according to FIG. 7. The DPM wer
(§5) determined using an online scintillation counter.

The test system of series [2] is SLA. Briefly: Retinol metabolism. It counts as in vitro ADME, mouse. On the procedure:
as §1, §2, §3, §4, §5

For series [3], the system named is EL-4. Briefly: Retinol metabolism. It is filed as in vitro ADME, mouse. On the procedure: as §1, §2, §3, §4, §5
The subject of series [4] is CD4+ T lymphocytes. Briefly: Proliferation of anti-CD3 activated CD4+ T lymphocytes. It counts as cell-based, BALB/c mouse. The text has this:
Growth curves of lymph node T cells depleted of antigen-presenting cells (FIG. 17A) with and without 10^-6 M retinol at 2×10^5 and 5×10^4 cells/well. (FIG. 17B) Dose-responses elicited by different retinoids in cultures of lymph node T cells depleted of antigen-presenting cells. Also shown are the growth curves of CD4^+ (FIG. 17C) and CD8^+ T lymphocytes (FIG. 17D) in the presence of either retinol, 14HRR, human serum or in their absence.
T lymphocytes, purified as described, 5×10^4 well, were activated with immobilized anti-CD3 antibody in ITLB medium. The indicated amounts of retinoids or human serum were added at initiation of cultures. […] 14HRR was added every 12 hours. DNA synthesis was measured by a 4 hour pulse with tritiated thymidine. SDs were ≤17%.
The cell suspension in a volume of 2 ml was applied to a nylon wool column (40) (0.6 g of washed nylon fibers in the barrel of a 10 ml syringe) and incubated at 37° C. for 40 min. The non-adherent cells were recovered by washing with warm serum-free medium at a flow rate of 1 ml/min. […] The success of the enrichment procedures was monitored cytofluorimetrically using FITC-conjugated anti-CD8 and PE-conjugated anti-CD4. […]

Series [5] has as its system 5/2 cells. Briefly: Growth (DNA synthesis, [3H]thymidine) of lymphoblastoid 5/2 cells in serum-free medium. It counts as cell-based, human. The settings on record: for restoration of capacity to proliferate: ITLB medium without retinol. How it is done:
Washed 5/2 cells (5,000/well) were incubated for 72 hours in HB101 medium with the indicated amounts of retinoids. DNA synthesis was measured by [^3 H] thymidine uptake. The measurements were done in triplicate. The SDs were <15%.
In FIGS. 4B to 4D, 5/2 cells were washed twice and seeded at a concentration of 150,000 cells/ml in HB 101 medium. Triplicate samples of 100 μl of cell suspension were removed daily and pulsed for 6 hours with [^3 H] thymidine. Means are shown. The SDs were never >20%.
P3 was purified as described in the Experimental Details section. 5/2 cells (5,000/well) were incubated for 72 hours in HB101 medium and refed with the indicated amount of retinoid daily. DNA synthesis was measured by [^3 H]-thymidine uptake. P3 is bioactive down to a concentration of 10-^8 M (FIG. 8). […] This is due either to chemical instability or to a more rapid metabolic degradation of P3 by the cells.
The assay was done in 96-well microtiter plates in a final volume of 200 ul/well. The cells were cultured for 72 hours and cell growth determined by [^3 H] thymidine (0.8 μCi/well)labeling for the last 16 hours. Retinoids were added at the indicated concentrations at the initiation of culture and every 24 hours thereafter.
The human EBV-transformed B-cell line 5/2 was established from the peripheral blood of a healthy donor. The cell line was grown in RPMI 1640 supplemented with 8% fetal calf serum, L-glutamine (2 mM), and antibiotics. The cell line was tested regularly for mycoplasma infections and was consistently negative.
The assay system is a modification of the assay developed by Blazar et al. (12). […] Assays were done in 96 well microtiter plates in a final volume of 200 μl/well or in 25 cm^2 tissue culture flasks. The cells in the microtiter plates were cultured for 72 hours and cell growth was determined by labeling for the last 16 hours with 0.8 μCi/well of [^3 H]thymidine (sp. act. 6.7 Ci/mmol). Growth in the culture flasks was determined in three aliquots of 100 μl taken at 24 hours intervals and cultured in the presence of 0.8 μCi of [^3 H]thymidine for an additional 6 hour period. To determine the viable cell number, nine aliquots per time point were differentially counted in a Neubauer chamber in the presence of trypan blue.
5/2 cells were grown in the absence of retinol in a medium containing the basic RPMI 1640 amino acid/salt mixture, insulin (5 μg/ml), transferrin (5 μg/ml), albumin (0.1%) and linoleic acid (10^-6 M) (ITLB). […] The dose-response curve shown in FIG. 26 indicates an effective concentration of 10^-7 M.

Consider `CC1=C(/C=C/C(C)=C/C=C/C(C)=C/CO)C(C)(C)CCC1` [retinol, all-trans retinol], for which the Total cts. is recorded as 1.4 × 10^5 cts in series [1] (P388D.1), 6.1 × 10^5 cts in series [2] and 2.8 × 10^5 cts in series [3] (EL-4). Further, the “Ester (% of taken up retinol)” value was 26% in series [1] (P388D.1, overnight); 9% in series [2] (overnight); 44% in series [3] (EL-4, overnight). Also, the “P3 (% of taken up retinol)” value came out at 0.5% in series [1] (P388D.1, overnight); 3% in series [2] (overnight); 5% in series [3] (EL-4, overnight). Further, the “Retinol (% of taken up retinol)” value in series [1] (P388D.1, overnight) was 71%; in series [2] (overnight), 85%; in series [3] (EL-4, overnight) it was 40%. Besides, in series [4], the “response to activating signal” value is listed as “responded to the activating signal”. Also, the “support of 5/2 cell growth” value in series [5] (HB101 medium) was “enable 5/2 cells to grow”. In addition, the “restoration of capacity to proliferate” value in series [5] is reported as “restores the capacity to proliferate”.

Regarding `CC(C=CC=C(C)C(O)CO)=CC=C1C(C)=CCCC1(C)C` (centres unmarked) [14HRR, 14-hydroxy-4,14-retro-retinol], the “response to activating signal” value in series [4] is on record as “responded to the activating signal”. In series [5] (HB101 medium), the “support of 5/2 cell growth” value was “active and capable of replacing retinol”. Further, the minimal effective concentration in series [5] (Homo sapiens, 72 h, HB101 medium, refed daily, read-out: bioactive down to a concentration) was determined as 0.01 µM. Also, in series [5], the “restoration of capacity to proliferate” value is recorded as “restores the capacity to proliferate”. In addition, in series [5] (chemical instability or more rapid metabolic degradation), the “need to replenish cultures” value is “cultures have to be replenished daily”.
